Data: ChEMBL document CHEMBL4699640, “l-Tryptophan Induces a Marine-Derived Fusarium sp. to Produce Indole Alkaloids with Activity against the Zika Virus” (J Nat Prod, 2020)

tested on: A549; assay: Cytotoxicity against human A549 cells assessed as reduction in cell viability by MTT assay; assay type: cell-based; conditions: not given; call rule not given here

Row | Compound | IC50
1 | O=C(c1c[nH]c2ccccc12)c1nccc2c1[nH]c1ccccc12 | 6.3 µM
2 | CC(C)=CCC[C@]1(C)[C@@H](O)CC[C@@]2(C)[C@H]1CC[C@H]1Cc3c([nH]c4ccccc34)[C@@]12C [EMINDOLE SB] | 4.4 µM

tested on: MDA-MB-231; assay: Cytotoxicity against human MDA-MB-231 cells assessed as reduction in cell viability by MTT assay; assay type: cell-based; conditions: not given

Row | Compound | IC50
3 | CC(C)=CCC[C@]1(C)[C@@H](O)CC[C@@]2(C)[C@H]1CC[C@H]1Cc3c([nH]c4ccccc34)[C@@]12C [EMINDOLE SB] | 3.2 µM

tested on: Zika virus; assay: Antiviral activity against Zika virus Z16019 infected in human A549 cells assessed as reduction in viral titer preincubated for 1 hr followed by compound washout and subsequent compound addition without virus and measured after 48 hrs by plaque assay; assay type: functional, organism-based; conditions: Zika virus, Z16019, A549; read-out: EC50

Row | Compound | EC50
4 | CC(C)=C[C@H]1C[C@]2(C)[C@H](CC[C@@]3(C)[C@H]2CC[C@H]2Cc4c([nH]c5ccccc45)[C@@]23C)O1 | 4.2 µM
5 | C#C[C@@]1(O)[C@H](O)[C@@H](CO)O[C@H]1n1ccc2c(N)ncnc21 | 15 µM
6 | O=C(C(=O)c1c[nH]c2ccccc12)c1c[nH]c2ccccc12 | 5 µM
7 | O=C1c2ccccc2NC1(c1c[nH]c2ccccc12)c1c[nH]c2ccccc12 | 22 µM
8 | CC(C)=C[C@H]1C[C@]2(C)[C@H](CC[C@@]3(C)[C@H]2CC[C@H]2CC(=O)c4ccccc4NC(=O)O[C@@]23C)O1 | 12 µM
9 | COC(=O)Cc1c(-c2cc3ccccc3[nH]2)[nH]c2ccccc12 | 50 µM
10 | CC(=O)OCC(=O)O[C@H]1CC[C@@]2(C)[C@@H](CC[C@H]3Cc4c([nH]c5ccccc45)[C@@]32C)[C@]1(C)CCC=C(C)C | 7.5 µM
11 | O=C(Cc1c[nH]c2ccccc12)OCCc1c[nH]c2ccccc12 | 38 µM
12 | CC(=O)C(C)(c1c[nH]c2ccccc12)c1c[nH]c2ccccc12 | 18 µM
13 | CC(C)=C[C@H]1C[C@]2(C)[C@H](CC[C@@]3(C)[C@H]2CC[C@H]2CC(=O)c4ccccc4NC(=O)[C@@]23C)O1 [ASPORYZIN A] | 18 µM

same assay, conditions: a549

Row | Compound | EC50
14 | C[S+]([O-])CCC(c1c[nH]c2ccccc12)c1c[nH]c2ccccc12 (stereo unspecified) | Not Active
15 | Nc1ccccc1CC(c1c[nH]c2ccccc12)c1c[nH]c2ccccc12 | Not Active
16 | CC(C)=CCC[C@]1(C)[C@@H](O)CC[C@@]2(C)[C@H]1CC[C@H]1Cc3c([nH]c4ccccc34)[C@@]12C [EMINDOLE SB] | Not Active
